Experimental data: EP4559922A1, “ANTIHISTAMINE COMPOUND, PREPARATION METHOD THEREFOR AND USE THEREOF” (HC Synthetic Pharmaceutical Co., Ltd., priority 2022, dated 2024)

Experiments:
histamine = assay: Antagonism of histamine-induced contraction of isolated ileal smooth muscle of guinea pigs; settings: x±s, n = 8; for Smooth muscle tone After administration: 3 minutes after adding 0.05 mL compound following histamine
Experimental: (§1) The guinea pig was knocked unconscious with a wooden stick, and the abdomen was immediately dissected to separate the ileum about 15 cm in length. The contents of the intestinal segment were flushed with Tyrode's solution and placed in Tyrode's solution at a constant temperature of 37°C for later use, and oxygen was supplied simultaneously. The experimental intestinal tract (1 cm in length) was cut and placed into 20 ml of Tyrode's solution at a constant temperature of 37°C with a continuous oxygen supply. One end of the intestine was fixed on the ventilation hook and the other end was connected to the muscle tone transducer and led to the computer interface. The muscle tone value of the ileal smooth muscle was recorded with a BL system. The experiment was carried out after the intestinal segment contraction became stable.
(§2) After the ileal peristalsis curve stabilized, the tone values before adding the compound were recorded, and then 0.05 mL of histamine was added. […] The operation was repeated 8 times. The antispasmodic percentage was calculated using the following equation. Antispasmodic percentage =; (Tone value after adding histamine−Tone value after adding subject compound)/(Tone value after adding histamine) × 100% [formula]

[1] = as above; settings: relative to tone after adding histamine; x±s, n = 8; 3 min
Experimental: as §1, §2

[2] = test system: histamine-induced asthma in guinea pigs; assay: Antiasthmatic effect on histamine-induced asthma in guinea pigs (latency period); format: in vivo; settings: X±s, n = 5; for Post-administration latency period: 1 mg/kg oral gavage, sixty minutes after administration, histamine hydrochloride spray, capped at 8 minutes
Experimental: The guinea pigs were placed in a polymethyl methacrylate bell jar and a histamine hydrochloride solution was sprayed ultrasonically (0.8 mg/mL) for 40 seconds. The time point at which the guinea pigs developed asthma was recorded. The time of convulsion and fall was taken as the latency period. Guinea pigs with a latency period exceeding 180 seconds were not selected. […] The guinea pigs were administered by oral gavage at a dose of 2 mL/kg·bw. Sixty minutes after the administration, the guinea pigs were placed in bell jars, and histamine hydrochloride solution was sprayed under the same conditions as in the previous selection. The latency period for the onset of asthma was recorded. […] The results were processed statistically.

[3] = Accelerated stability test; format: physicochemical; settings: 40°C ± 2°C, relative humidity 75% ± 5%; for remaining at 730 h / remaining at 1460 h / remaining at 2190 h / remaining at 4380 h: storage 75% relative humidity, read-out: Content
[4] = test system: isolated ileal smooth muscle of guinea pigs; assay: Effect on muscle tone of isolated ileal smooth muscle of guinea pigs (no histamine added); settings: X±s; for Smooth muscle tone After administration: 5 minutes after adding drug; for Antispasmodic percentage: relative to tone before adding compound, n = 8, 5 min
Experimental: as §1
After the ileum contraction curve stabilized, the tone values before adding the drug were recorded, then the drug or DMSO was added, and the average tone value of the ileum contraction curve at that point was recorded 5 minutes later. The operation was repeated 8 times. The antispasmodic percentage was calculated according to the following formula. Antispasmodic percentage =; (Tone value before adding subject compound−Tone value after adding subject compound)/(Tone value before adding subject compound); × 100% [formula]

Structure (SMILES)	Smooth muscle tone After administration (histamine)	Antispasmodic percentage [1]	Post-administration latency period [2]	Content ([3]; Month 0)	Description ([3]; Month 0)	Related substances ([3]; Month 0)	Description ([3]; Month 1)	Related substances ([3]; Month 1)	Description ([3]; Month 2)	Related substances ([3]; Month 2)	Description ([3]; Month 3)	Related substances ([3]; Month 3)	Description ([3]; Month 6)	Related substances ([3]; Month 6)	remaining at 730 h ([3]; Month 1)	remaining at 1460 h ([3]; Month 2)	remaining at 2190 h ([3]; Month 3)	remaining at 4380 h ([3]; Month 6)	Smooth muscle tone After administration ([4]; n = 8)	Antispasmodic percentage ([4]; 5 min)	also measured
O=C1Cc2ccccc2C(=C2CCN(CCCCOCOP(=O)(O)O)CC2)c2ccsc21 [Compound IV-8]	1.20 ± 0.25 g	65.01±18.56%	370.23 ± 50.29 s	99.7%	White powder	0.03%	White powder	0.04%	White powder	0.05%	White powder	0.06%	White powder	0.09%	99.7%	99.7%	99.6%	99.6%	1.14 ± 0.31 g	32.94±19.45%	
O=C1Cc2ccccc2C(=C2CCN(CCCCCOP(=O)(O)O)CC2)c2ccsc21 [Compound IV-5]	1.20 ± 0.22 g	65.61±19.34%	377.11 ± 50.43 s																1.14 ± 0.30 g	33.72±19.05%	
O=C1Cc2ccccc2C(=C2CCN(CCOP(=O)(O)O)CC2)c2ccsc21 [Compound IV-2]	1.14 ± 0.23 g	66.95±17.07%	380.27 ± 50.25 s	99.7%	White powder	0.03%	White powder	0.04%	White powder	0.04%	White powder	0.06%	White powder	0.09%	99.7%	99.7%	99.6%	99.6%	1.19 ± 0.31 g		Antispasmodic percentage [4]: 30.40±18.50%
O=C1Cc2ccccc2C(=C2CCN(CCCOCOP(=O)(O)O)CC2)c2ccsc21 [Compound IV-7]	1.17 ± 0.22 g	65.99±19.08%	373.33 ± 52.76 s																1.15 ± 0.25 g	33.52±19.74%	
O=C1Cc2ccccc2C(=C2CCN(CCOCOP(=O)(O)O)CC2)c2ccsc21 [Compound III-6]	1.22 ± 0.23 g	64.43±17.18%	370.03 ± 52.11 s																1.14 ± 0.30 g		Smooth muscle tone After addition of histamine (histamine; after 0.05 mL histamine, before compound): 3.43 ± 0.92 g; Smooth muscle tone Before administration (histamine; baseline before histamine): 1.78 ± 0.20 g; Pre-administration latency period ([2]; baseline before administration, histamine hydrochloride 0.8 mg/mL sprayed 40 seconds): 98.68 ± 49.22 s; Smooth muscle tone Before administration ([4]; baseline, n = 8): 1.71 ± 0.24 g; Antispasmodic percentage [4]: 33.33±19.04%
O=C1Cc2ccccc2C(=C2CCN(CCOCOP(=O)(O)O)CC2)c2ccsc21 [Compound IV-6]	1.15 ± 0.20 g	66.56±19.45%	370.56 ± 50.81 s	99.7%	White powder	0.03%	White powder	0.05%	White powder	0.09%	White powder	0.12%	White powder	0.25%	99.7%	99.6%	99.6%	99.4%	1.17 ± 0.28 g	31.17±19.54%	
